Laboratory results reported in ChEMBL document CHEMBL4321845, “Discovery and Characterization of Potent Pan-Genotypic HCV NS5A Inhibitors Containing Novel Tricyclic Central Core Leading to Clinical Candidate” (J Med Chem, 2019).

How the values were obtained:
[1] = Oral bioavailability in rat at 10 mg/kg measured up to 24 hrs by LC-MS/MS analysis; format: ADME, organism-based; settings: in vivo
[2] = Drug level in plasma of Wistar rat at 10 mg/kg, po measured at 4 hrs by LC-MS/MS analysis; format: ADME, organism-based
[3] = Half life in rat at 1 mg/kg, iv measured up to 24 hrs by LC-MS/MS analysis; format: ADME, organism-based; settings: in vivo
[4] = Drug level in liver of Wistar rat at 10 mg/kg, po measured up to 8 hrs by LC-MS/MS analysis; format: ADME, organism-based; settings: in vivo
[5] = AUC (last) in rat at 10 mg/kg, po measured up to 24 hrs by LC-MS/MS analysis; format: ADME, organism-based; parameters: dose 10 mg/kg, time 0 - last, route oral; settings: in vivo
[6] = Cytotoxicity in human HepG2 cells assessed as inhibition of cell growth at 10 uM incubated for 72 hrs by CCK8 assay relative to control; format: cell-based; settings: read-out: GI
[7] = Drug metabolism in rat liver microsomes assessed as metabolic rate at 1 uM preincubated for 5 mins before NADPH addition and measured up to 30 mins by LC-MS/MS analysis; format: ADME, Microsome; settings: 0.5 h
[8] = Drug level in liver of Wistar rat at 10 mg/kg, po measured at 4 hrs by LC-MS/MS analysis; format: ADME, organism-based; settings: read-out: Drug uptake
[9] = Cytotoxicity in human HEK293 cells assessed as inhibition of cell growth at 3 uM incubated for 72 hrs by CCK8 assay relative to control; format: cell-based; settings: read-out: GI
[10] = AUC(last) in rat at 1 mg/kg, iv measured up to 24 hrs by LC-MS/MS analysis; format: ADME, organism-based; parameters: dose 1 mg/kg, route intravenous, time 0 - last; settings: in vivo
[11] = Ratio of dug level in liver to plasma of Wistar rat at 10 mg/kg, po measured at 4 hrs by LC-MS/MS analysis; format: ADME, organism-based
CYP3A4 = CYP3A4 (Homo sapiens, UniProt P08684); test: Inhibition of CYP3A4 in pooled human liver microsomes at 10 uM pre-incubated for 5 mins before NADPH addition and measured after 10 mins by UPLC-MS/MS analysis relative to control; format: ADME
[12] = Volume of distribution at steady state in rat at 1 mg/kg, iv measured up to 24 hrs by LC-MS/MS analysis; format: ADME, organism-based; settings: in vivo, read-out: Vdss
[13] = Cytotoxicity in human HepG2 cells assessed as inhibition of cell growth at 3 uM incubated for 72 hrs by CCK8 assay relative to control; format: cell-based; settings: read-out: GI
[14] = Cytotoxicity in human HEK293 cells assessed as inhibition of cell growth at 10 uM incubated for 72 hrs by CCK8 assay relative to control; format: cell-based; settings: read-out: GI
CYP2C9 = CYP2C9 (Homo sapiens, UniProt P11712); test: Inhibition of CYP2C9 in pooled human liver microsomes at 10 uM pre-incubated for 5 mins before NADPH addition and measured after 10 mins by UPLC-MS/MS analysis relative to control; format: ADME
[15] = Cytotoxicity in human HuH7 cells assessed as inhibition of cell growth at 3 uM incubated for 72 hrs by CCK8 assay relative to control; format: cell-based, Huh-7; settings: read-out: GI
CYP2D6 = CYP2D6 (Homo sapiens, UniProt P10635); test: Inhibition of CYP2D6 in pooled human liver microsomes at 10 uM pre-incubated for 5 mins before NADPH addition and measured after 10 mins by UPLC-MS/MS analysis relative to control; format: ADME
[16] = Cmax in rat at 10 mg/kg, po measured up to 24 hrs by LC-MS/MS analysis; format: ADME, organism-based; parameters: dose 10 mg/kg, route oral; settings: in vivo
[17] = Clearance in rat at 1 mg/kg, iv measured up to 24 hrs by LC-MS/MS analysis; format: ADME, organism-based; settings: in vivo
[18] = Drug metabolism in human liver microsomes assessed as metabolic rate at 1 uM preincubated for 5 mins before NADPH addition and measured up to 30 mins by LC-MS/MS analysis; format: ADME, Microsome; settings: 0.5 h
[19] = target: T1, Nonstructural protein 5A (Hepatitis C virus) (UniProt Q5L478); test: Inhibition of NS5A in HCV genotype 2a infected in human Huh7.5/J6/JFH1/EMCVIRES/hRlucNeo cells assessed as inhibition of replicon levels at 1 uM incubated for 72 hrs by luciferase reporter gene assay; settings: Hepatitis C virus subtype 2a
T1 sequence (whole entry): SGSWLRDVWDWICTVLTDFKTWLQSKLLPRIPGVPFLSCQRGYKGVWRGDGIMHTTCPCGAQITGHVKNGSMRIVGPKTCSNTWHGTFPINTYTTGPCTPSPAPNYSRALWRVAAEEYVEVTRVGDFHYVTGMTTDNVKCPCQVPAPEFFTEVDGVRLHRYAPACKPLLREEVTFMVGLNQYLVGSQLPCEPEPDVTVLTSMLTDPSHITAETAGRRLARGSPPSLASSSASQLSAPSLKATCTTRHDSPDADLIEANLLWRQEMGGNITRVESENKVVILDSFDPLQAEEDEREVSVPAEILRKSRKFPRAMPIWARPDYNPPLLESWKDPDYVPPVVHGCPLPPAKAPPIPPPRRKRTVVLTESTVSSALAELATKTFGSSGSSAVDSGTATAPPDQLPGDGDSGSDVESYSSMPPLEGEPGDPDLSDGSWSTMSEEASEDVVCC

CYP2D6, sequence (P10635 whole entry): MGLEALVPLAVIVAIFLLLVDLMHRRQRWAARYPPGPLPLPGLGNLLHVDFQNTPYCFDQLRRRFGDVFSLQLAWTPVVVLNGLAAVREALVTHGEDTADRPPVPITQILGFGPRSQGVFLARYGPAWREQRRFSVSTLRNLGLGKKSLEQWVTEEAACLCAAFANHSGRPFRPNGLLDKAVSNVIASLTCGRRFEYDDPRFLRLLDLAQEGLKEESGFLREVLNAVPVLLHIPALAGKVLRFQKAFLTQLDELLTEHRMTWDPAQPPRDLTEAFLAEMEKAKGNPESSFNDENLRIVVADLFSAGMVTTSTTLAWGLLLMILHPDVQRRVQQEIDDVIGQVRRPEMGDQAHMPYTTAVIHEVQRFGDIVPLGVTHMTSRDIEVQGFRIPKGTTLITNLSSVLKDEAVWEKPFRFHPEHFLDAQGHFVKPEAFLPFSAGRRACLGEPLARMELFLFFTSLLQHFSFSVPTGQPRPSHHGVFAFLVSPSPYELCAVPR
CYP2C9, sequence (P11712 whole entry): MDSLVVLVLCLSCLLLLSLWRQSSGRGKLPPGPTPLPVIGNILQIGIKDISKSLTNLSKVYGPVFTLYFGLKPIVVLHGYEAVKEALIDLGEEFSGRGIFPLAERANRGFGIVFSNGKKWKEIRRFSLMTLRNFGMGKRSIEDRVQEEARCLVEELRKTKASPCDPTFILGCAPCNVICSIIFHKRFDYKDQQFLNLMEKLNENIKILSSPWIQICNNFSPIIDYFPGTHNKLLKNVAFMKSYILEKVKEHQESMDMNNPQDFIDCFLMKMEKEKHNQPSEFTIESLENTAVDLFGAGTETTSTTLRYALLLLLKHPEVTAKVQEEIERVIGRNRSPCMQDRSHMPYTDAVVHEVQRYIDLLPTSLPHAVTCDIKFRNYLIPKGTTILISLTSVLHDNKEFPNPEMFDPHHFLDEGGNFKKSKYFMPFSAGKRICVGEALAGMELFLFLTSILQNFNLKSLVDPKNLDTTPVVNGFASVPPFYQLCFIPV
CYP3A4, sequence (P08684 whole entry): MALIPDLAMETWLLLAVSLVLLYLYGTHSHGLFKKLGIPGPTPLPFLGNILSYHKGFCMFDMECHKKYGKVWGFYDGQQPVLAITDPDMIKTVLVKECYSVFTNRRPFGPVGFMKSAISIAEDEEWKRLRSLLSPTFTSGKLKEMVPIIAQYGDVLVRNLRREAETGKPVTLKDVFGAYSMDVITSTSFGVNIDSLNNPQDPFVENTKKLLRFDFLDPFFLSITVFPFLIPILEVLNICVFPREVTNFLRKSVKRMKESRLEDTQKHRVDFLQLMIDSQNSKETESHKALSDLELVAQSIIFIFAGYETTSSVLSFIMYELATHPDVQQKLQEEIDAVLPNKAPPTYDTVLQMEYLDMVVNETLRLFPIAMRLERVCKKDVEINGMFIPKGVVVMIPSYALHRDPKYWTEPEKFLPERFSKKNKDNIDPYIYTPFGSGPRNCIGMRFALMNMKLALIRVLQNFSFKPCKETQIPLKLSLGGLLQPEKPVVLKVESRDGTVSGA

COC(=O)N[C@H](C(=O)N1CCC[C@H]1c1ncc(-c2ccc3c(c2)OCC(C)(C)COc2cc(-c4cnc([C@@H]5CCCN5C(=O)[C@@H](NC(=O)OC)C(C)C)[nH]4)ccc2-3)[nH]1)C(C)C
bioavailability [1]: 47%
concentration at 4 h [2]: 620 nM
half-life [3]: 2.1 h
Drug uptake [4]: Active
AUC(0-t) at 24 h [5]: 5.2 µM·h
inhibition at 72 h, 10 µM [6]: 35%
Drug metabolism [7]: 0.01 nmol/min/mg
concentration at 4 h [8]: 7600 nM
inhibition at 72 h, 3 µM [9]: 17%
AUC(0-t) at 24 h [10]: 1.1 µM·h
Kp at 4 h [11]: 13
inhibition at 10 min, 10 µM (CYP3A4): 0%
Vd [12]: 2.3 L/kg
inhibition at 72 h, 3 µM [13]: 8%
inhibition at 72 h, 10 µM [14]: 33%
inhibition at 10 min, 10 µM (CYP2C9): 0%
inhibition at 72 h, 3 µM [15]: 4%
inhibition at 10 min, 10 µM (CYP2D6): 17%
Cmax [16]: 1900 nM
clearance [17]: 17 mL/min/kg
Drug metabolism [18]: 0.02 nmol/min/mg

COC(=O)N[C@H](C(=O)N1CCC[C@H]1c1ncc(-c2ccc3c(ccc4sc(-c5cnc([C@@H]6CCCN6C(=O)[C@@H](NC(=O)OC)C(C)C)[nH]5)nc43)c2)[nH]1)C(C)C
inhibition [19]: 0%
